The results in this text go back to the supplement of paper PMC10307832.

Assay in all cases: relative viability (nuclei count vs DMSO), 5 days (fraction); higher = more cells survive
Compound in one assay: CN(C)C(=N)NC(=N)N [Metformin]
In a few lines: (§1)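 Five library-drug doses spaced by √10 were pinned onto vehicle-anchored 1536-well plates of lung cancer cell lines that had been kept overnight at 37 °C. Cells went 5 days without medium change, then were fixed, permeabilised and Hoechst-stained together, imaged at 4× and counted by MetaXpress. Viability is the ratio of treated-well to vehicle-well nuclei, taken as a median over plates. Plates required control CV below 25% and at least one doubling.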

Compound in the next assay: N#CC1(c2ccc(NC(=O)c3cccnc3NCc3ccncc3)cc2)CCCC1 [Apatinib]
In outline:
as §1

Compound in the assay “Apatinib + Navitoclax”: N#CC1(c2ccc(NC(=O)c3cccnc3NCc3ccncc3)cc2)CCCC1 [Apatinib] + CC1(C)CCC(c2ccc(Cl)cc2)=C(CN2CCN(c3ccc(C(=O)NS(=O)(=O)c4ccc(N[C@H](CCN5CCOCC5)CSc5ccccc5)c(S(=O)(=O)C(F)(F)F)c4)cc3)CC2)C1 [Navitoclax] (partner 0.5 µM)
In outline:
(§2)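 Lung cancer cell lines in 1536-well plates were dosed by pin tool the day after seeding, either with one drug alone or with a fixed anchor-drug dose plus five library-drug doses (not always all listed) in √10 steps. After 5 days, cells were fixed and their nuclei stained in one step (final 0.05% Triton X-100, 1% formaldehyde, 1 ug/ml Hoechst), then counted on 4× images. Relative viability is the nuclei count in treated wells divided by that in vehicle wells. Values are medians of duplicate plates.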

Compound in the assay “Metformin + Trametinib”: CN(C)C(=N)NC(=N)N [Metformin] + CC(=O)Nc1cccc(-n2c(=O)n(C3CC3)c(=O)c3c(Nc4ccc(I)cc4F)n(C)c(=O)c(C)c32)c1 [Trametinib] (partner 0.02 µM)
In outline: as §2

For the cell line SK-MES-1, the relative viability was found to be 0.9 with Metformin (10 µM); 0.875 with Metformin (31.62 µM); 0.952 with Metformin (100 µM); 0.826 with Metformin (316.23 µM); 0.884 in the assay with Metformin (1000 µM); 1.02 in the assay with Apatinib (0.08 µM). Besides, the relative viability in the assay with Apatinib (0.253 µM) stood at 1.06; in the assay with Apatinib (0.8 µM), 0.978; with Apatinib (2.53 µM), 0.933; with Apatinib (8 µM), 0.884; with Apatinib + Navitoclax (first compound 0.08 µM) it was 1.25; with Apatinib + Navitoclax (first compound 0.253 µM), 1.17. Further, the relative viability is 1.24 with Apatinib + Navitoclax (first compound 0.8 µM); 1.14 in the assay with Apatinib + Navitoclax (first compound 2.53 µM); 0.965 in the assay with Apatinib + Navitoclax (first compound 8 µM); 0.564 in the assay with Metformin + Trametinib (first compound 10 µM); 0.574 with Metformin + Trametinib (first compound 31.62 µM); 0.595 in the assay with Metformin + Trametinib (first compound 100 µM). For the same cell line, the relative viability in the assay with Metformin + Trametinib (first compound 316.23 µM) was determined as 0.57; in the assay with Metformin + Trametinib (first compound 1000 µM), 0.616.
For NCI-H2170, the relative viability with Metformin (10 µM) stood at 0.787; with Metformin (31.62 µM), 0.882; with Metformin (100 µM) it was 0.907; in the assay with Metformin (316.23 µM), 0.957; with Metformin (1000 µM) it was 1.01; with Apatinib (0.08 µM), 0.981. In addition, the relative viability in the assay with Apatinib (0.253 µM) was 1.01; with Apatinib (0.8 µM), 0.909; in the assay with Apatinib (2.53 µM), 0.89; in the assay with Apatinib (8 µM) it was 0.886; in the assay with Apatinib + Navitoclax (first compound 0.08 µM) it was 0.617; with Apatinib + Navitoclax (first compound 0.253 µM), 0.646. Moreover, the relative viability amounted to 0.568 with Apatinib + Navitoclax (first compound 0.8 µM); 0.599 in the assay with Apatinib + Navitoclax (first compound 2.53 µM); 0.498 with Apatinib + Navitoclax (first compound 8 µM); 0.789 in the assay with Metformin + Trametinib (first compound 10 µM); 0.779 with Metformin + Trametinib (first compound 31.62 µM); 0.903 in the assay with Metformin + Trametinib (first compound 100 µM). Moreover, the relative viability came to 0.869 with Metformin + Trametinib (first compound 316.23 µM) and 0.945 with Metformin + Trametinib (first compound 1000 µM).
As for NCI-H1648, the relative viability with Metformin (10 µM) is 0.937; in the assay with Metformin (31.62 µM), 1.11; with Metformin (100 µM), 1.28; with Metformin (316.23 µM), 1.08; with Metformin (1000 µM), 1.16; with Apatinib (0.08 µM), 1.18. Moreover, the relative viability in the assay with Apatinib (0.253 µM) worked out at 0.735; in the assay with Apatinib (0.8 µM), 0.722; in the assay with Apatinib (2.53 µM), 0.591; with Apatinib (8 µM), 0.498; in the assay with Metformin + Trametinib (first compound 31.62 µM) it was 0.553; with Metformin + Trametinib (first compound 100 µM) it was 0.68. The relative viability stood at 0.53 with Metformin + Trametinib (first compound 316.23 µM) and 0.73 in the assay with Metformin + Trametinib (first compound 1000 µM).
NCI-H1915: the relative viability in the assay with Metformin (31.62 µM) turned out to be 0.998; in the assay with Metformin (100 µM) it was 1.02; in the assay with Metformin (316.23 µM), 0.968; with Metformin (1000 µM), 1.01; with Apatinib (0.08 µM), 1.06; with Apatinib (0.253 µM), 0.959. The relative viability with Apatinib (0.8 µM) was found to be 0.963; with Apatinib (2.53 µM), 0.879; with Apatinib (8 µM) it was 0.821; with Apatinib + Navitoclax (first compound 0.08 µM), 0.838; with Apatinib + Navitoclax (first compound 0.253 µM), 0.819; in the assay with Apatinib + Navitoclax (first compound 0.8 µM), 0.778. Besides, the relative viability is 0.783 with Apatinib + Navitoclax (first compound 2.53 µM); 0.732 with Apatinib + Navitoclax (first compound 8 µM); 0.302 with Metformin + Trametinib (first compound 31.62 µM); 0.302 with Metformin + Trametinib (first compound 100 µM); 0.289 with Metformin + Trametinib (first compound 316.23 µM).
Take HCC-366: the relative viability came to 0.926 with Metformin (10 µM); 1.06 with Metformin (31.62 µM); 1.02 with Metformin (100 µM); 0.964 in the assay with Metformin (316.23 µM); 1.03 with Metformin (1000 µM); 1.03 with Apatinib (0.08 µM). Further, the relative viability with Apatinib (0.253 µM) was 1; with Apatinib (0.8 µM), 1.02; with Apatinib (2.53 µM) it was 0.97; in the assay with Apatinib (8 µM) it was 0.988; with Apatinib + Navitoclax (first compound 0.08 µM), 1.1; in the assay with Apatinib + Navitoclax (first compound 0.253 µM) it was 1.08. Besides, the relative viability with Apatinib + Navitoclax (first compound 0.8 µM) worked out at 1.04; with Apatinib + Navitoclax (first compound 2.53 µM), 0.961; with Apatinib + Navitoclax (first compound 8 µM), 1.01; with Metformin + Trametinib (first compound 10 µM) it was 0.301; with Metformin + Trametinib (first compound 31.62 µM), 0.289; with Metformin + Trametinib (first compound 100 µM), 0.23. Also, the relative viability with Metformin + Trametinib (first compound 316.23 µM) was determined as 0.279; with Metformin + Trametinib (first compound 1000 µM), 0.314.
Turning to HOP-62, the relative viability was found to be 0.856 with Metformin (10 µM); 1.02 with Metformin (31.62 µM); 1.02 with Metformin (100 µM); 0.917 with Metformin (316.23 µM); 1.03 with Metformin (1000 µM); 0.964 with Apatinib (0.08 µM). Further, the relative viability with Apatinib (0.253 µM) was found to be 0.924; with Apatinib (0.8 µM), 0.985; with Apatinib (2.53 µM), 0.859; with Apatinib (8 µM) it was 0.922; with Apatinib + Navitoclax (first compound 0.08 µM), 1.04; in the assay with Apatinib + Navitoclax (first compound 0.253 µM) it was 1.01. For the same cell line, the relative viability worked out at 1.01 with Apatinib + Navitoclax (first compound 0.8 µM); 0.859 in the assay with Apatinib + Navitoclax (first compound 2.53 µM); 0.878 with Apatinib + Navitoclax (first compound 8 µM); 0.409 in the assay with Metformin + Trametinib (first compound 10 µM); 0.497 with Metformin + Trametinib (first compound 31.62 µM); 0.427 with Metformin + Trametinib (first compound 100 µM). Also, the relative viability is 0.364 with Metformin + Trametinib (first compound 316.23 µM) and 0.485 with Metformin + Trametinib (first compound 1000 µM).
For the cell line RERF-LC-KJ, the relative viability with Metformin (10 µM) amounted to 0.817; with Metformin (31.62 µM) it was 0.976; with Metformin (100 µM), 0.888; with Metformin (316.23 µM), 0.786; with Metformin (1000 µM), 0.926; with Apatinib (0.08 µM), 1.03. The relative viability in the assay with Apatinib (0.253 µM) amounted to 0.978; with Apatinib (0.8 µM) it was 0.933; in the assay with Apatinib (2.53 µM) it was 0.847; with Apatinib (8 µM), 0.802; in the assay with Apatinib + Navitoclax (first compound 0.08 µM) it was 0.931; with Apatinib + Navitoclax (first compound 0.253 µM) it was 1.04. In addition, the relative viability came to 0.874 in the assay with Apatinib + Navitoclax (first compound 0.8 µM); 0.557 with Apatinib + Navitoclax (first compound 2.53 µM); 0.997 in the assay with Apatinib + Navitoclax (first compound 8 µM); 0.774 with Metformin + Trametinib (first compound 10 µM); 0.794 with Metformin + Trametinib (first compound 31.62 µM); 0.775 with Metformin + Trametinib (first compound 100 µM). Besides, the relative viability in the assay with Metformin + Trametinib (first compound 316.23 µM) amounted to 0.676; in the assay with Metformin + Trametinib (first compound 1000 µM) it was 0.707.
